{
  "source": "patent US20080305118A1",
  "about": "“Treatment Of Type 1 Diabetes With Inhibitors Of Macrophage Migration Inhibitory Factor” (The Feinstein Institute for Medical Research, priority 2004, published 2008)",
  "key": {"[1]": {"test_system": "MLD-STZ-induced diabetic mice", "test": "MLD-STZ-induced diabetes, weekly blood glucose, prophylactic treatment", "assay_type": "in vivo, mouse", "details": "CBA/H mice; prophylactic i.p. treatment; FIG. 2B", "protocol": "Diabetes induction and in vivo treatments. Diabetes was induced in adult male mice with multiple subtoxic doses of streptozotocin (MLD-STZ, 40 mg/kg body wt/day i.p. for five consecutive days) as described (21). The impact of polyclonal antibody against MIF was studied by i.p. injection of mice (5-10 per treatment group) with 5 mg/kg of rabbit IgG antibody against mouse […] on days −3, −1, 2 and 5 in relation to the first STZ dose. The effect of ISO-1 was studied by i.p. injection of the drug at a dose of 1 mg/mouse/day, for 14 consecutive days, starting 3 days prior to the first injection with STZ. Control animals received either nonimmune IgG or ISO-1 diluent (DMSO/H2O). Mice were monitored for diabetes by weekly measurement of blood glucose levels using a glucometer (Sensimac®, Imaco, Ludersdorf, Germany). Clinical diabetes was defined by hyperglycemia in non-fasted animals (blood glucose over 11.8 mmol/l)."}, "[2]": {"test_system": "pancreatic islets of MLD-STZ diabetic mice", "test": "Histological examination of pancreas, insulitis score", "assay_type": "in vivo, mouse", "details": "CBA/H mice; day 15; FIG. 2D", "protocol": "Histological and immunohistochemical examination of pancreas. Pancreata were fixed in neutral buffered formalin and then embedded in paraffin. The fixed blocks were sectioned (7 μm thick) and haematoxylin and eosin staining was performed to assess the incidence and degree of inflammatory changes. Insulitis scoring was performed as previously described (10, 11) by examining at least 15 islets per mouse and graded in a blinded fashion as follows: 0, no infiltrate; 1, peri-ductal infiltrate; 2, peri-islet infiltrate; 3, intraislet infiltrate; and 4, intraislet infiltrate associated with β-cell destruction. At least 15 islets were counted for each mouse. A mean score for each pancreas was calculated by dividing the total score by the number of islets examined. Insulitis scores (IS) are expressed as mean values±SD. Immunohistochemistry was performed on paraffin-embedded sections of formalin-fixed tissue using a previously described microwave-based method (24). For MIF immunostaining, a polyclonal rabbit anti-MIF IgG and control rabbit IgG were used. The examined area of the islet was outlined, and the percentage of MIF-positive islet cells was measured using quantitative Image Analysis System (Optima 6.5, Media Cybernatics, Silver Springs, Md.)."}, "[3]": {"test_system": "spleen mononuclear cells (SMNC)", "test": "Ex vivo lymphoproliferative response (3H-thymidine incorporation) after in vivo treatment", "set-up": "species or system mouse", "details": "CBA/H mice treated in vivo; splenocytes day 15 after MLD-STZ; FIG. 3A", "protocol": "(§1) Ex vivo lymphoproliferative response and adhesion assay. Spontaneous proliferation of SMNC was determined by incubation of cells (5×10^5/well) from each individual animal in 96-well microplates with 1 μCi ^3H-thymidine (^3H-TdR, ICN). Incorporated radioactivity was measured after 24 h in a Beckman liquid scintillation counter. The analysis of spontaneous adhesion of SMNC (2.5×10^5/well) to a monolayer of L929 fibroblasts or plastic was performed by using crystal violet assay as previously described (21). The absorbance corresponding to the number of adherent cells, was measured at 570 nm."}, "[4]": {"test_system": "spleen mononuclear cells (SMNC)", "test": "Ex vivo spontaneous adhesion assay (crystal violet) after in vivo treatment", "set-up": "species or system mouse", "details": "SMNC from mice treated in vivo, FIG. 3B", "protocol": "as §1"}, "TNF-α": {"test_system": "TNF-α", "test": "Ex vivo TNF-α production, L929 cytolytic bioassay of culture supernatants", "assay_type": "in vivo, mouse", "details": "day 15, 48 h culture, FIG. 4", "protocol": "Cell incubation and determination of pro-inflamatory mediators. Resident peritoneal cells (PC), spleen mononuclear cells (SMNC), and pancreatic islets were isolated from individual anti-MIF IgG-treated, ISO-1-treated or control diabetic mice on day 15 after the first injection of STZ, as well as from normal untreated animals. SMNC (5×10^6/well) prepared by Ficoll gradient centrifugation, resident PC (2.5×10^5/well) collected by peritoneal lavage with cold PBS, or pancreatic islets (150-200 islets/well) prepared by collagenase digestion and density gradient purification as described (22), were incubated in 24-well Limbro culture plates in 1 ml of RPMI-1640 culture medium containing 5% fetal bovine serum (FBS) and cell supernatants were collected after 48 h. Concentration of bioactive TNF-α in culture supernatant was determined as previously described (22) using a cytolytic bioassay with actinomycin D-treated fibrosarcoma cell line L929. Nitrite accumulation, an indicator of NO production, was determined in cell culture supernatant using the Griess reaction (22). The expression of intracellular MIF, IFN-γ, MHC II, or iNOS was determined by slight modification of cell-based ELISA protocol (23). Spleen MNC (5×10^5/well) or PC (2.5×10^5/well), were allowed to adhere to poly-L-lysine-precoated 96-well microplates. Following fixation with 4% paraformaldehyde, and washing with 0.1% Triton X-100 in PBS (T/PBS), endogenous peroxidase was quenched with 1% H2O2 in T/PBS, and reaction blocked for 1 h at 37° C. with 10% FBS in T/PBS. […] After washing, the cells were incubated for 1 h with the corresponding secondary antibody (goat anti-rabbit Ig(H+L)-HRP, goat anti-rat Ig(H+L)-HRP or goat anti-mouse Ig(F(ab′)2-specific)-HRP washed again and incubated for 15 min at room temperature in dark with 50 μl of a solution containing 0.4 mg/ml OPD (Sigma), 11.8 mg/ml Na2HPO4×2H2O, 7.3 mg/ml citric acid and 0.015% H2O2. The reaction was stopped with 3N HCl, and the absorbance was measured in a microplate reader at 492 nm in a Titertek microplate reader (Flow)."}, "iNOS": {"test_system": "iNOS", "test": "Intracellular iNOS expression, cell-based ELISA", "assay_type": "in vivo, mouse", "details": "macrophages from treated animals vs diabetic animals; FIG. 5A", "protocol": "Cell incubation and determination of pro-inflamatory mediators. Resident peritoneal cells (PC), spleen mononuclear cells (SMNC), and pancreatic islets were isolated from individual anti-MIF IgG-treated, ISO-1-treated or control diabetic mice on day 15 after the first injection of STZ, as well as from normal untreated animals. […] Concentration of bioactive TNF-α in culture supernatant was determined as previously described (22) using a cytolytic bioassay with actinomycin D-treated fibrosarcoma cell line L929. Nitrite accumulation, an indicator of NO production, was determined in cell culture supernatant using the Griess reaction (22). The expression of intracellular MIF, IFN-γ, MHC II, or iNOS was determined by slight modification of cell-based ELISA protocol (23). […] After washing, the cells were incubated for 1 h with the corresponding secondary antibody (goat anti-rabbit Ig(H+L)-HRP, goat anti-rat Ig(H+L)-HRP or goat anti-mouse Ig(F(ab′)2-specific)-HRP washed again and incubated for 15 min at room temperature in dark with 50 μl of a solution containing 0.4 mg/ml OPD (Sigma), 11.8 mg/ml Na2HPO4×2H2O, 7.3 mg/ml citric acid and 0.015% H2O2. The reaction was stopped with 3N HCl, and the absorbance was measured in a microplate reader at 492 nm in a Titertek microplate reader (Flow)."}, "MIF tautomerase": {"biological_target": "T1, MIF tautomerase (Homo sapiens, UniProt P14174)", "T1 sequence (P14174 2-115 limits assumed)": "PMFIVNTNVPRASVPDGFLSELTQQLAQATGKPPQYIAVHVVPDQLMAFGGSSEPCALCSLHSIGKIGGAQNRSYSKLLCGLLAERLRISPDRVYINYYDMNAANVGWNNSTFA", "details": "reference (20); cited from earlier work"}, "[5]": {"details": "cells from mice treated in vivo"}},
  "data": [
    {"smiles": "COC(=O)C[C@@H]1CC(c2ccc(O)cc2)=NO1", "note": "(racemic) [ISO-1, (S,R)-3-(4-hydroxyphenyl)-4,5-dihydro-5-isoxazole acetic acid methyl ester]", "values": [
      {"measurement": "MLD-STZ-induced hyperglycemia (blood glucose levels)", "setting": "[1]", "value": "remained euglycemic"},
      {"measurement": "degree of islet infiltration (insulitis)", "setting": "[2]", "value": "attenuated inflammation of the islets"},
      {"measurement": "SMNC proliferation, 3H-thymidine incorporation", "setting": "[3]", "value": "25637±2018", "unit": "cpm"},
      {"measurement": "spontaneous adhesion of SMNC to plastic", "setting": "[4]", "value": "significantly inhibited"},
      {"measurement": "adhesion of SMNC to fibroblasts", "setting": "[4]; L929 fibroblasts", "value": "significantly inhibited"},
      {"measurement": "TNF-α production by peritoneal macrophages", "setting": "TNF-α; [5]", "value": "down-regulated"},
      {"measurement": "TNF-α production by spleen MNC", "setting": "TNF-α; [5]", "value": "down-regulated"},
      {"measurement": "TNF-α production by pancreatic islet cells", "setting": "TNF-α; islets from mice treated in vivo", "value": "down-regulated"},
      {"measurement": "intracellular expression of iNOS in macrophages", "setting": "iNOS", "value": "significantly reduced"},
      {"measurement": "MIF tautomerase and biological activity", "setting": "MIF tautomerase", "value": "inhibits"}
    ]}
  ]
}
